From paper PMC7614683, “A small molecule PI3Kα activator for cardioprotection and neuroregeneration” (Nature, 2023)

Biological target: T1, full length p110α/p85α (Homo sapiens, UniProt P42336)
T1 construct: Full-length human p110α was expressed either in a complex with full-length human p85α (for HTS, biochemistry and HDX-MS); 6xHis tag followed by TEV protease site (N); host or cells: Spodoptera frugiperda Sf9, baculovirus
Test: HDX-MS
Assay type: binding
Method: Sample preparation: HDX-MS experiments were carried out as described previously. […] In total, three biological replicates, i.e. three separate protein preparations, each with exchange experiments carried out in triplicate were conducted. Data presented in the manuscript is a single biological replicate. Data acquisition and analysis were as follows: Each sample was thawed and injected onto an M-Class Acquity UPLC with HDX Technology (Waters) kept at 0.1°C. Proteins were digested in-line using an Enzymate Pepsin Column (Waters, #186007233) at 15°C for 2 min at 200 μl/min. Peptic peptides were then eluted onto an Acquity UPLC BEH C18 Column (Waters, #186002346) equilibrated in Pepsin-A buffer (0.1% formic acid) and separated using a 5-35% gradient of Pepsin-B buffer (0.1% formic acid, 99% acetonitrile) over 7 min at a flowrate of 40 μl/min. Data were collected on a Waters Cyclic IMS, with an electrospray ionisation source, from 50-2000 m/z. Data were collected in the HDMS^E mode. A single pass of the cyclic IMS was conducted. A “blank” sample of protein dilution buffer with quench was run between samples, and carry-over of peptides was routinely monitored. Five replicates were used to identify non-deuterated peptides. Criteria used to include peptides in the HDX-MS dataset were: minimum intensity 5000, minimum sequence length 5, maximum sequence length 25, a minimum of 3 fragment ions, a minimum of 0.1 products per amino acid, a minimum score of 6.62, a maximum MH+ Error of 10 ppm, identification in at least two datasets with a retention time RSD of less than 10%. Data was analysed using Protein Lynx Global Server (Waters) and DynamX (Waters). All peptides were manually inspected for EX1 kinetics and sufficient quality of the peptide envelope. Data quality, experiment design, and reporting of data meets the criteria as determined by the HDX-MS community. Uptake files were created using Baryonyx. Data are available via ProteomeXchange with identifier PXD037721.

[1] = PK3CA_HUMAN peptide 241-250, time point 3 of 5
[2] = PK3CA_HUMAN peptide 241-250, time point 4 of 5
[3] = PK3CA_HUMAN peptide 241-250, time point 5 of 5
[4] = PK3CA_HUMAN peptide 260-266, time point 1 of 5
[5] = PK3CA_HUMAN peptide 260-266, time point 2 of 5
[6] = PK3CA_HUMAN peptide 260-266, time point 3 of 5
[7] = PK3CA_HUMAN peptide 260-266, time point 4 of 5
[8] = PK3CA_HUMAN peptide 260-266, time point 5 of 5
[9] = PK3CA_HUMAN peptide 262-272, time point 1 of 5
[10] = PK3CA_HUMAN peptide 262-272, time point 2 of 5
[11] = PK3CA_HUMAN peptide 262-272, time point 3 of 5
[12] = PK3CA_HUMAN peptide 262-272, time point 4 of 5
[13] = PK3CA_HUMAN peptide 262-272, time point 5 of 5
[14] = PK3CA_HUMAN peptide 273-281, time point 1 of 5
[15] = PK3CA_HUMAN peptide 273-281, time point 2 of 5
[16] = PK3CA_HUMAN peptide 273-281, time point 3 of 5
[17] = PK3CA_HUMAN peptide 273-281, time point 4 of 5
[18] = PK3CA_HUMAN peptide 273-281, time point 5 of 5
[19] = PK3CA_HUMAN peptide 278-286, time point 1 of 5
[20] = PK3CA_HUMAN peptide 278-286, time point 2 of 5
[21] = PK3CA_HUMAN peptide 278-286, time point 3 of 5
[22] = PK3CA_HUMAN peptide 278-286, time point 4 of 5
[23] = PK3CA_HUMAN peptide 278-286, time point 5 of 5
[24] = PK3CA_HUMAN peptide 287-293, time point 1 of 5
[25] = PK3CA_HUMAN peptide 287-293, time point 2 of 5
[26] = PK3CA_HUMAN peptide 287-293, time point 3 of 5
[27] = PK3CA_HUMAN peptide 287-293, time point 4 of 5
[28] = PK3CA_HUMAN peptide 287-293, time point 5 of 5
[29] = PK3CA_HUMAN peptide 288-293, time point 1 of 5
[30] = PK3CA_HUMAN peptide 288-293, time point 2 of 5
[31] = PK3CA_HUMAN peptide 288-293, time point 3 of 5
[32] = PK3CA_HUMAN peptide 288-293, time point 4 of 5
[33] = PK3CA_HUMAN peptide 288-293, time point 5 of 5
[34] = PK3CA_HUMAN peptide 326-333, time point 1 of 5
[35] = PK3CA_HUMAN peptide 326-333, time point 2 of 5
[36] = PK3CA_HUMAN peptide 326-333, time point 3 of 5
[37] = PK3CA_HUMAN peptide 326-333, time point 4 of 5

T1 sequence (P42336 whole entry): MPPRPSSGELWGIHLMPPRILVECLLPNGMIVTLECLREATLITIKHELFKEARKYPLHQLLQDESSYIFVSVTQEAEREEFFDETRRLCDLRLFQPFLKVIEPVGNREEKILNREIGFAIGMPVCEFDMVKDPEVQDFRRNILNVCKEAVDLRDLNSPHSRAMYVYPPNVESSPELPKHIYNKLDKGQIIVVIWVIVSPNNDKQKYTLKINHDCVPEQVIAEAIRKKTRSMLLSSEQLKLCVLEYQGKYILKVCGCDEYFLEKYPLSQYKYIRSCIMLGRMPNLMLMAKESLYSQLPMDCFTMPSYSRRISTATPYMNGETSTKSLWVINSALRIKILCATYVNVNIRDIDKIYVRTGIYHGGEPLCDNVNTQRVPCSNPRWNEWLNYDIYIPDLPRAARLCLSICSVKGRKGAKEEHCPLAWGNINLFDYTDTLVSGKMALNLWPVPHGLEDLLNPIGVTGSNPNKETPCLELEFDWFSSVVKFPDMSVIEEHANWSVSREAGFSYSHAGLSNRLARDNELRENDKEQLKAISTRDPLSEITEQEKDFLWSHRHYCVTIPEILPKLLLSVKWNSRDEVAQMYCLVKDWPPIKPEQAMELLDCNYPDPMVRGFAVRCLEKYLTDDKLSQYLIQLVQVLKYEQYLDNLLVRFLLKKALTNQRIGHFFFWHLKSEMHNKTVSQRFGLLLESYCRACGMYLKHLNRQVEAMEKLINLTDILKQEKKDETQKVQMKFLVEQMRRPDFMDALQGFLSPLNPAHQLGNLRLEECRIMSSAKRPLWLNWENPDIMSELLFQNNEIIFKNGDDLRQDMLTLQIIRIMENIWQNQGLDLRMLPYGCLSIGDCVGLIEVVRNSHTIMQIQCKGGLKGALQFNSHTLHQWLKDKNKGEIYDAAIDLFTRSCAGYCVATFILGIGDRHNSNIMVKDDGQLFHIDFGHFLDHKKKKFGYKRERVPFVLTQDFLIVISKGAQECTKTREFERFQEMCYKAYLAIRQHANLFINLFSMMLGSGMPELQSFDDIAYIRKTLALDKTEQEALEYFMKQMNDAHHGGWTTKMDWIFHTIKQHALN
T1 sequence (P27986 whole entry partner): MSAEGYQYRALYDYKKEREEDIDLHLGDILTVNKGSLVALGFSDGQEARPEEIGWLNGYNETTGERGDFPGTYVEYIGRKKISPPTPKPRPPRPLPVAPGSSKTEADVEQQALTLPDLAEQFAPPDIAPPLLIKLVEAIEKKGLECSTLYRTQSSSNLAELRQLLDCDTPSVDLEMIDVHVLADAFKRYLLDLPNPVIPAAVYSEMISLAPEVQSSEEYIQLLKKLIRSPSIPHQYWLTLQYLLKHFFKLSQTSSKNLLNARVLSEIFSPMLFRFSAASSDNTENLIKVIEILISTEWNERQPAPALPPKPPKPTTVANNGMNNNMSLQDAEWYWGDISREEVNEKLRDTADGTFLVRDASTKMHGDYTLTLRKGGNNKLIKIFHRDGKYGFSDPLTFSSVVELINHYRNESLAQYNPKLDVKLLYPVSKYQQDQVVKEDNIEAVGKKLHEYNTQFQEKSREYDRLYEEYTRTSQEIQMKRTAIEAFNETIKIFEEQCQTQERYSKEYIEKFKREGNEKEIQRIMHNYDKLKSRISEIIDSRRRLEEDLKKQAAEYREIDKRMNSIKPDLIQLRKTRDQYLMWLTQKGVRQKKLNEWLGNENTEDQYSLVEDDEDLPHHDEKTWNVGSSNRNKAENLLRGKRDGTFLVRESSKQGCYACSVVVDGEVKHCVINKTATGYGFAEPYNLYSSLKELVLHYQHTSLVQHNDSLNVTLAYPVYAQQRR

CCN1CCN(c2ccc(Nc3cc(Nc4cccc5c4N(C(C)=O)CC5)ccn3)cc2)CC1 [Compound 1938]
HDX difference (%D) [1]: 0.6%
HDX difference (Da) [1]: 0.0529 Da
HDX difference (%D) [2]: 0.112%
HDX difference (Da) [2]: 0.01 Da
HDX difference (%D) [3]: 0.113%
HDX difference (Da) [3]: 0.01 Da
HDX difference (%D) [4]: -0.0157%
HDX difference (Da) [4]: -0.000943 Da
HDX difference (%D) [5]: 0.0014%
HDX difference (Da) [5]: 8.39e-5 Da
HDX difference (%D) [6]: 0.136%
HDX difference (Da) [6]: 0.00818 Da
HDX difference (%D) [7]: 0.659%
HDX difference (Da) [7]: 0.04 Da
HDX difference (%D) [8]: 1.2%
HDX difference (Da) [8]: 0.07 Da
HDX difference (%D) [9]: -0.8%
HDX difference (Da) [9]: -0.07 Da
HDX difference (%D) [10]: 0.264%
HDX difference (Da) [10]: 0.0238 Da
HDX difference (%D) [11]: 0.3%
HDX difference (Da) [11]: 0.0282 Da
HDX difference (%D) [12]: -0.571%
HDX difference (Da) [12]: -0.05 Da
HDX difference (%D) [13]: -0.7%
HDX difference (Da) [13]: -0.06 Da
HDX difference (%D) [14]: 1.3%
HDX difference (Da) [14]: 0.10 Da
HDX difference (%D) [15]: 0.9%
HDX difference (Da) [15]: 0.07 Da
HDX difference (%D) [16]: 0.8%
HDX difference (Da) [16]: 0.06 Da
HDX difference (%D) [17]: 0.743%
HDX difference (Da) [17]: 0.06 Da
HDX difference (%D) [18]: 0.428%
HDX difference (Da) [18]: 0.0342 Da
HDX difference (%D) [19]: -0.131%
HDX difference (Da) [19]: -0.01 Da
HDX difference (%D) [20]: -0.178%
HDX difference (Da) [20]: -0.0142 Da
HDX difference (%D) [21]: -0.652%
HDX difference (Da) [21]: -0.05 Da
HDX difference (%D) [22]: -1.2%
HDX difference (Da) [22]: -0.10 Da
HDX difference (%D) [23]: -1.0%
HDX difference (Da) [23]: -0.08 Da
HDX difference (%D) [24]: 0.00815%
HDX difference (Da) [24]: 0.000489 Da
HDX difference (%D) [25]: 0.168%
HDX difference (Da) [25]: 0.01 Da
HDX difference (%D) [26]: -0.19%
HDX difference (Da) [26]: -0.0114 Da
HDX difference (%D) [27]: -0.0604%
HDX difference (Da) [27]: -0.00362 Da
HDX difference (%D) [28]: -0.4%
HDX difference (Da) [28]: -0.0241 Da
HDX difference (%D) [29]: -0.334%
HDX difference (Da) [29]: -0.0167 Da
HDX difference (%D) [30]: -0.17%
HDX difference (Da) [30]: -0.00848 Da
HDX difference (%D) [31]: -0.5%
HDX difference (Da) [31]: -0.0241 Da
HDX difference (%D) [32]: 0.8%
HDX difference (Da) [32]: 0.04 Da
HDX difference (%D) [33]: -0.113%
HDX difference (Da) [33]: -0.00564 Da
HDX difference (%D) [34]: -1.8%
HDX difference (Da) [34]: -0.13 Da
HDX difference (%D) [35]: -4.4%
HDX difference (Da) [35]: -0.31 Da
HDX difference (%D) [36]: -3.0%
HDX difference (Da) [36]: -0.21 Da
HDX difference (%D) [37]: -3.1%
HDX difference (Da) [37]: -0.21 Da
HDX difference (%D) (PK3CA_HUMAN peptide 326-333, time point 5 of 5): -4.2%
